Data on 19 compounds can be found in US20250114345A1, “COMPOUNDS AND COMPOSITIONS AS CBP/P300 DEGRADERS AND USES THEREOF” (Oncopia Therapeutics, Inc. d/b/a/ SK Life Science Labs, priority 2023, published 2025).

In the test the target is T1, p300 (Homo sapiens, UniProt Q09472).
T1 construct: host or cells: A549 P300 HiBit cells
The test is described as follows: P300 degradation, HiBit technology in A549 P300 HiBit cells (2 h). The test is classed as cell-based. To be noted: 2 hrs post treatment; for Dmax: A549, A549 P300 HiBit cells; for DC50: A549 P300 HiBit cells. In a few lines:
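A549 HiBiT knock-in cells seeded overnight at 37 °C, 5% CO2 in F-12K with 10% heat-inactivated FBS, then given serial dilutions of compound from 10 mM DMSO stocks. Lytic HiBiT detection reagent added for 10 min at room temperature; luminescence read. Potency and Dmax reported.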
(In general: HiBiT is a short tag that completes a luciferase, so light tracks the accessible tagged protein.)

The structures appear in SMILES notation.

T1 sequence (Q09472 whole entry): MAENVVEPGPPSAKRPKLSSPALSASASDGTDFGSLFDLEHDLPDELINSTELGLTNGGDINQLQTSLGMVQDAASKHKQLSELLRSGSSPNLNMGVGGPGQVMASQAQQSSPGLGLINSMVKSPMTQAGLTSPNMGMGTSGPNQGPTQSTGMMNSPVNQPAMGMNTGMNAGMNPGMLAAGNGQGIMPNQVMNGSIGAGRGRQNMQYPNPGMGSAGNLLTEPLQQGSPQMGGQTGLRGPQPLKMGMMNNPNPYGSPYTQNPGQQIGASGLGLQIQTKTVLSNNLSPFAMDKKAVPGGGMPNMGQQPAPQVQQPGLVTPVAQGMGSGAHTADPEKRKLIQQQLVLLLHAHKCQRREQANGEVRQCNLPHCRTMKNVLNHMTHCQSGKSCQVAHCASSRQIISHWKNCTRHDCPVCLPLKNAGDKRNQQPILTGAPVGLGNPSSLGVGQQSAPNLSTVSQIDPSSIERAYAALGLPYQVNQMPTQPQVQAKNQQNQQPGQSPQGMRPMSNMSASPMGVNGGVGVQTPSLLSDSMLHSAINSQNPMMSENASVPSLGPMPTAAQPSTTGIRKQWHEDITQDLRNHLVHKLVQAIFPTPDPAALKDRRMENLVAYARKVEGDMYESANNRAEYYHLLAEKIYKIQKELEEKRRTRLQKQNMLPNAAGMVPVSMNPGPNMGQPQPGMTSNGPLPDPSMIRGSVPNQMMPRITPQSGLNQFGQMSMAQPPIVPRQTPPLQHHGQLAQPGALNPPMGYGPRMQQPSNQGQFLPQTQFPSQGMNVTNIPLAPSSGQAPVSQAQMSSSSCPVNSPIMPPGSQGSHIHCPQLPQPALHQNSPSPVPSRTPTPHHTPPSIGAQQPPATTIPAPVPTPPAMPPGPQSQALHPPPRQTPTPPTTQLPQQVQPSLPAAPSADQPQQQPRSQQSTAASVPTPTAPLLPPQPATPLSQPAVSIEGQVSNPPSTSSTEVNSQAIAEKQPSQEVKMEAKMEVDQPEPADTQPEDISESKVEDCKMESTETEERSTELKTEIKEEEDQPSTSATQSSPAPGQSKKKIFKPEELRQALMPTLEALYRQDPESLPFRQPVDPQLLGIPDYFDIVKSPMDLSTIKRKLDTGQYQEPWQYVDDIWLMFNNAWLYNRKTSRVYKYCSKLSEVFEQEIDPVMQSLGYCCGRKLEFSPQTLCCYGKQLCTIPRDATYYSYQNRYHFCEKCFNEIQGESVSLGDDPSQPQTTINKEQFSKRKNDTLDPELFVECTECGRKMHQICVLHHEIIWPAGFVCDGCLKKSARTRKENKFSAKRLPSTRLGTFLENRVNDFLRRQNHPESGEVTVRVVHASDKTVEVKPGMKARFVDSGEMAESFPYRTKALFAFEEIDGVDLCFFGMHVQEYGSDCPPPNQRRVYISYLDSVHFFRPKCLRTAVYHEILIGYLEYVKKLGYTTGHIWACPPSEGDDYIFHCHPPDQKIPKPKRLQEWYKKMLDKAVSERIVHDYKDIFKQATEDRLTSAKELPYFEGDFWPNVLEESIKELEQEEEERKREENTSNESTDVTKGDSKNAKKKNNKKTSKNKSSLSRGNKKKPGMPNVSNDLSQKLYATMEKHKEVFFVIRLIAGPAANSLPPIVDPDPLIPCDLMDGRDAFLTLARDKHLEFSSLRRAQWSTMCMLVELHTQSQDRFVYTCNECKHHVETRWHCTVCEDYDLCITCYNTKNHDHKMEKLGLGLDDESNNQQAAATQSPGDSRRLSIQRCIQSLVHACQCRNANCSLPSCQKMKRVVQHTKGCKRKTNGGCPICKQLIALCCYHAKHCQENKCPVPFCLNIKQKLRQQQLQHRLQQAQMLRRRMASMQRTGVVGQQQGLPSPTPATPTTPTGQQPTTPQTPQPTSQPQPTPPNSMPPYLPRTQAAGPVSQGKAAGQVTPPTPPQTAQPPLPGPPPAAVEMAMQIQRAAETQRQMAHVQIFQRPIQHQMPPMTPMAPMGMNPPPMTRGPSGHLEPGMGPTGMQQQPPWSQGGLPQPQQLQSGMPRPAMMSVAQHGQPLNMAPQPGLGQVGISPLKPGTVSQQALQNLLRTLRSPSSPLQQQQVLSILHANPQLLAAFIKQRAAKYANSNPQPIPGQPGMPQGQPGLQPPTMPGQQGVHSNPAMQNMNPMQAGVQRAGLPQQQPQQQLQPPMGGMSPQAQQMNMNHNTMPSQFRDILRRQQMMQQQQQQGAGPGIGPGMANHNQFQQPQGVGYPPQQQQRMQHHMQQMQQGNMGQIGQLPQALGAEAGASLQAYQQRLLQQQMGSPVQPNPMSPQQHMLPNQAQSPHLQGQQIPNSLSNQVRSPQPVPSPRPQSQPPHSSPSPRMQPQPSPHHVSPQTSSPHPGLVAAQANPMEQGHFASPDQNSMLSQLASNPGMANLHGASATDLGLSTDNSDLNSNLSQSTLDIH

The Dmax is the largest share of the target that was removed. Low values mean a partial loss of target, high ones a fuller loss of target. For orientation: DC50 means the midpoint of the concentration-degradation curve. Read a low DC50 as a more potent degrader. In turn, `CC(C)c1cc(-c2cccc3cc(-c4ccc(C(=O)NCC#Cc5ccc6c(c5)nnn6C5CCC(=O)NC5=O)nc4)ncc23)cc2c1n(C)c(=O)n2C` (centres unmarked) [Example A17, N-(3-(1-(2,6-Dioxopiperidin-3-yl)-1H-benzo[d][1,2,3]triazol-5-yl)prop-2-yn-1-yl)-5-(8-(7-isopropyl-1,3-dimethyl-2-oxo-2,3-dihydro-1H-benzo[d]imidazol-5-yl)isoquinolin-3-yl)picolinamide] had a Dmax of less than 20% and a DC50 greater than 1000 nM.
In turn, `Cc1cc(-c2ncc(N(C)c3cc(C(C)C)c4c(c3)n(C)c(=O)n4C)cc2Cl)cnc1C(=O)NCC#Cc1ccc2occ(C3CCC(=O)NC3=O)c2c1` (centres unmarked) [Example A116, 3-chloro-N-(3-(3-(2,6-dioxopiperidin-3-yl)benzofuran-5-yl)prop-2-yn-1-yl)-5-((7-isopropyl-1,3-dimethyl-2-oxo-2,3-dihydro-1H-benzo [d]imidazol-5-yl)(methyl)amino)-5′-methyl-[2,3′-bipyridine]-6′-carboxamide] returned a Dmax greater than 80% and a DC50 of 1 to 9.9 nM.
For `Cc1cc2c(N3CCCc4nc(-c5ccc(C(=O)NCC#Cc6cc7c(C8CCC(=O)NC8=O)cccc7o6)nc5)ncc43)nc(N3CC4CC4C3)cc2n(C)c1=O` (centres unmarked) [Example B172, 5-(5-(7-(3-azabicyclo[3.1.0]hexan-3-yl)-1,3-dimethyl-2-oxo-1,2-dihydro-1,6-naphthyridin-5-yl)-5,6,7,8-tetrahydropyrido[3,2-d]pyrimidin-2-yl)-N-(3-(4-(2,6-dioxopiperidin-3-yl)benzofuran-2-yl)prop-2-yn-1-yl)picolinamide] the same measures were greater than 80% and 10 to 99 nM.
For `Cn1c(=O)n(C)c2ncc(-c3cccc4cc(-c5ccc(C(=O)NCC#Cc6ccc7occ(C8CCC(=O)NC8=O)c7c6)nc5)ncc34)cc21` (centres unmarked) [Example A157, 5-(8-(1,3-dimethyl-2-oxo-2,3-dihydro-1H-imidazo[4,5-b]pyridin-6-yl)isoquinolin-3-yl)-N-(3-(3-(2,6-dioxopiperidin-3-yl)benzofuran-5-yl)prop-2-yn-1-yl)picolinamide] the same measures were greater than 80% and 1 to 9.9 nM.
For `CC(C)c1cc(-c2cccc3cc(-c4ccc(C(=O)NCC#Cc5ccc6cnn(C7CCC(=O)NC7=O)c6n5)nc4)ncc23)cc2c1n(C)c(=O)n2C` (centres unmarked) [Example A12, N-(3-(1-(2,6-Dioxopiperidin-3-yl)-1H-pyrazolo[3,4-b]pyridin-6-yl)prop-2-yn-1-yl)-5-(8-(7-isopropyl-1,3-dimethyl-2-oxo-2,3-dihydro-1H-benzo[d]imidazol-5-yl)isoquinolin-3-yl)picolinamide], in that order: 20 to 39% and 10 to 99 nM.
`CCc1cc(N2CCCc3nc(-c4ccc(C(=O)NCC#Cc5ccc6occ(C7CCC(=O)NC7=O)c6c5)nc4)ncc32)c2cc(C)c(=O)n(C)c2c1` (centres unmarked) [Example B43, N-(3-(3-(2,6-dioxopiperidin-3-yl)benzofuran-5-yl)prop-2-yn-1-yl)-5-(5-(7-ethyl-1,3-dimethyl-2-oxo-1,2-dihydroquinolin-5-yl)-5,6,7,8-tetrahydropyrido[3,2-d]pyrimidin-2-yl) picolinamide] yielded a maximal degradation (Dmax) greater than 80% and a DC50 of 1 to 9.9 nM.
For `Cc1cc2c(N3CCN(C)c4cc(-c5ccc(C(=O)NCC#Cc6cc7c(C8CCC(=O)NC8=O)cccc7o6)nc5)ncc43)cccc2n(C)c1=O` (centres unmarked) [Example B114, 5-(4-(1,3-dimethyl-2-oxo-1,2-dihydroquinolin-5-yl)-1-methyl-1,2,3,4-tetrahydropyrido [3,4-b]pyrazin-7-yl)-N-(3-(4-(2,6-dioxo-piperidin-3-yl)benzofuran-2-yl)prop-2-yn-1-yl)picolinamide] the same measures were greater than 80% and less than 1 nM.
The compound `COC1CN(c2cc3c(cc(C)c(=O)n3C)c(-c3cccc4cc(-c5ccc(C(=O)NCC#Cc6ccc7occ(C8CCC(=O)NC8=O)c7c6)nc5)ncc34)n2)C1` (centres unmarked) [Example B146, N-(3-(3-(2,6-dioxopiperidin-3-yl)benzofuran-5-yl)prop-2-yn-1-yl)-5-(8-(7-(3-methoxyazetidin-1-yl)-1,3-dimethyl-2-oxo-1,2-dihydro-1,6-naphthyridin-5-yl)isoquinolin-3-yl) picolinamide] returned a maximal degradation (Dmax) greater than 80% and a 50% degradation concentration (DC50) of 1 to 9.9 nM.
For `Cc1cc2c(N3CCCc4nc(-c5ccc(C(=O)NCC#Cc6ccc7occ(C8CCC(=O)NC8=O)c7c6)nc5)ncc43)cc(C(C)C)cc2n(C)c1=O` (centres unmarked) [Example B125, N-(3-(3-(2,6-dioxopiperidin-3-yl)benzofuran-5-yl)prop-2-yn-1-yl)-5-(5-(7-isopropyl-1,3-dimethyl-2-oxo-1,2-dihydroquinolin-5-yl)-5,6,7,8-tetrahydropyrido[3,2-d]pyrimidin-2-yl)picolinamide] the same measures were greater than 80% and 1 to 9.9 nM.
For `Cc1cc(-c2ccc(N(C)c3cc(C(C)C)c4c(c3)n(C)c(=O)n4C)cc2)cnc1C(=O)NCC#Cc1cccc(NC2CCC(=O)NC2=O)c1` (centres unmarked) [Example A43, N-(3-(3-((2,6-dioxopiperidin-3-yl)amino)phenyl)prop-2-yn-1-yl)-5-(4-((7-isopropyl-1,3-dimethyl-2-oxo-2,3-dihydro-1H-benzo [d]imidazol-5-yl) (methyl)amino)phenyl)-3-methylpicolinamide], in that order: 60 to 79% and 100 to 999 nM.
`CCc1cc(N(C)c2ccc(-c3cnc(C(=O)NCC#Cc4cccc(NC5CCC(=O)NC5=O)c4)c(C)c3)cc2)c2cc(C)c(=O)n(C)c2c1` (centres unmarked) [Example B18, N-(3-(3-((2,6-Dioxopiperidin-3-yl)amino)phenyl)prop-2-yn-1-yl)-5-(4-((7-ethyl-1,3-dimethyl-2-oxo-1,2-dihydroquinolin-5-yl)(methyl)amino)phenyl)-3-methylpicolinamide] showed a maximal degradation (Dmax) greater than 80% and a 50% degradation concentration (DC50) of 10 to 99 nM.
For `Cc1cc(-c2ncc3c(n2)OCCN3c2cc(C3CCOCC3)c3c(c2)n(C)c(=O)n3C)cnc1C(=O)NCC#Cc1cc2c(C3CCC(=O)NC3=O)cccc2o1` (centres unmarked) [Example A252, 5-(5-(1,3-dimethyl-2-oxo-7-(tetrahydro-2H-pyran-4-yl)-2,3-dihydro-1H-benzo[d]imidazol-5-yl)-6,7-dihydro-5H-pyrimido[4,5-b][1,4]oxazin-2-yl)-N-(3-(4-(2,6-dioxopiperidin-3-yl)benzofuran-2-yl)prop-2-yn-1-yl)-3-methylpicolinamide], in that order: greater than 80% and 1 to 9.9 nM.
For `CC(C)c1cc(-c2cccc3cc(-c4ccc(C(=O)NCC#Cc5cc(C#N)c6cnn(C7CCC(=O)NC7=O)c6c5)nc4)ncc23)cc2c1n(C)c(=O)n2C` (centres unmarked) [Example A21, N-(3-(4-Cyano-1-(2,6-dioxopiperidin-3-yl)-1H-indazol-6-yl)prop-2-yn-1-yl)-5-(8-(7-isopropyl-1,3-dimethyl-2-oxo-2,3-dihydro-1H-benzo[d]imidazol-5-yl)isoquinolin-3-yl)picolinamide], in that order: 60 to 79% and 100 to 999 nM.
In the case of `Cn1c(=O)n(C)c2cc(N3CCCc4cc(-c5ccc(C(=O)NCC#Cc6cc7c(C8CCC(=O)NC8=O)cccc7o6)nc5)nnc43)ccc21` (centres unmarked) [Example A217, 5-(8-(1,3-dimethyl-2-oxo-2,3-dihydro-1H-benzo[d]imidazol-5-yl)-5,6,7,8-tetrahydropyrido[2,3-c]pyridazin-3-yl)-N-(3-(4-(2,6-dioxo-piperidin-3-yl)benzofuran-2-yl)prop-2-yn-1-yl)picolinamide], the maximal degradation (Dmax) was greater than 80% and the DC50 lay within 1 to 9.9 nM.
For the compound `CC(C)c1cc(N2CCOc3cc(-c4ccc(C(=O)NCC#Cc5ccc6occ(C7CCC(=O)NC7=O)c6c5)nc4)c(F)cc32)cc2c1n(C)c(=O)n2C` (centres unmarked) [Example A110, N-(3-(3-(2,6-dioxo-piperidin-3-yl)benzofuran-5-yl)prop-2-yn-1-yl)-5-(6-fluoro-4-(7-isopropyl-1,3-dimethyl-2-oxo-2,3-dihydro-1H-benzo[d]imidazol-5-yl)-3,4-dihydro-2H-benzo[b][1,4]oxazin-7-yl)picolinamide], the Dmax is greater than 80% and the DC50 is 1 to 9.9 nM.
For `CCn1c(=O)n(C)c2ccc(N3CCOc4nc(-c5ccc(C(=O)NCC#Cc6ccc7occ(C8CCC(=O)NC8=O)c7c6)nc5)ncc43)cc21` (centres unmarked) [Example A143, N-(3-(3-(2,6-dioxo-piperidin-3-yl)benzofuran-5-yl)prop-2-yn-1-yl)-5-(5-(3-ethyl-1-methyl-2-oxo-2,3-dihydro-1H-benzo[d]imidazol-5-yl)-6,7-dihydro-5H-pyrimido[4,5-b] [1,4]oxazin-2-yl)picolinamide] the same measures were 20 to 39% and 1 to 9.9 nM.
For `CN1C(=O)C(C)(C)c2cc(-c3cccc4cc(-c5ccc(C(=O)NCC#Cc6ccc7occ(C8CCC(=O)NC8=O)c7c6)nc5)ncc34)ccc21` (centres unmarked) [Example A130, N-(3-(3-(2,6-dioxo-piperidin-3-yl)benzo-furan-5-yl)prop-2-yn-1-yl)-5-(8-(1,3,3-trimethyl-2-oxoindolin-5-yl)isoquinolin-3-yl)picolinamide], in that order: 20 to 39% and 10 to 99 nM.
Turning to `COC1CN(c2cc(N3CCOc4cc(-c5ccc(C(=O)NCC#Cc6ccc7occ(C8CCC(=O)NC8=O)c7c6)nc5)c(F)cc43)c3cc(C)c(=O)n(C)c3c2)C1` (centres unmarked) [Example B113, N-(3-(3-(2,6-dioxopiperidin-3-yl)benzofuran-5-yl)prop-2-yn-1-yl)-5-(6-fluoro-4-(7-(3-methoxyazetidin-1-yl)-1,3-dimethyl-2-oxo-1,2-dihydroquinolin-5-yl)-3,4-dihydro-2H-benzo[b][1,4]oxazin-7-yl)picolinamide], the greatest degradation seen (Dmax) is greater than 80% and the DC50 lay within 1 to 9.9 nM.
For `Cc1cc(-c2ncc3c(n2)CCCN3c2ccc3c(c2)n(C)c(=O)n3C)cnc1C(=O)NCC#Cc1cc2c(C3CCC(=O)NC3=O)cccc2o1` (centres unmarked) [Example A231, 5-(5-(1,3-dimethyl-2-oxo-2,3-dihydro-1H-benzo[d]imidazol-5-yl)-5,6,7,8-tetra-hydropyrido[3,2-d]pyrimidin-2-yl)-N-(3-(4-(2,6-dioxo-piperidin-3-yl)benzofuran-2-yl)prop-2-yn-1-yl)-3-methylpicolinamide] the same measures were greater than 80% and 1 to 9.9 nM.
